Assay [1] relates to AML samples (mononuclear cells from peripheral blood or bone marrow of AML patients). Kind of assay: Ex vivo treatment of primary AML patient samples; live cells by annexin V / propidium iodide binding assays. The format is cell-based, human. As to the method: Leukemia samples isolated from peripheral blood or bone marrow of patients with newly diagnosed or relapsed/refractory AML were treated using the test compound as described below.
Heparinized peripheral blood and bone marrow samples containing more than 1.6×10^7 mononuclear cells were obtained from AML patients with newly diagnosed or relapsed/refractory AML, after informed consent according to the University of Texas MD Anderson Cancer Center (MDA, Houston, Tex., USA) guidelines in accordance with the Declaration of Helsinki. In each sample, the blast counts (blast %) was determined from routine morphological differential counts by clinical laboratory technicians, confirmed by hematopathologists at MDA (usually 500 cells were counted). […]
Mononuclear cells were purified by density-gradient centrifugation. The cells were cultured in RPMI 1640 medium containing 10% fetal bovine serum and were treated ex vivo for 48 hours with the test compound (0, 25, 50, 100, 250, 500, or 1000 nM), and live cell numbers were determined by apoptosis analysis using annexin V and propidium iodide (PI, purchased from Sigma-Aldrich) binding assays. Annexin V- and PI-negative cells were counted as live cells. Apoptosis was quantified as the proportion of annexin V-positive cells, and specific apoptosis was calculated by the following formula: % specific apoptosis=(test−control)×100/(100−control). […]

The next assay concerns AML. The conditions noted are these: AML patients; cited from earlier work.

Regarding `CC1(C)CCC2(CC1)N[C@@H](C(=O)N[C@@H]1CC[C@@H](C(N)=O)OC1)[C@H](c1ccnc(Cl)c1F)[C@]21C(=O)Nc2cc(Cl)ccc21.Cc1ccc(S(=O)(=O)O)cc1` [Compound 2, (3′R,4′S,5′R)—N-[(3R,6S)-6-carbamoyltetrahydro-2H-pyran-3-yl]-6″-chloro-4′-(2-chloro-3-fluoropyridin-4-yl)-4,4-dimethyl-2″-oxo-1″,2″-dihydrodispiro[cyclohexane-1,2′-pyrrolidine-3′,3″-indole]-5′-carboxamide mono(4-methylbenzenesulfonate) monohydrate], in assay [1] (in other samples), the “leukemia cells induce apoptosis” value is recorded as “less than 20%”. Besides, the “leukemia cells induced apoptosis” value in assay [1] (in some of the samples, at a higher concentration) was “more than 80%”.
Consider `CCOc1cc(C(C)(C)C)ccc1C1=N[C@@](C)(c2ccc(Cl)cc2)[C@@](C)(c2ccc(Cl)cc2)N1C(=O)N1CCN(CCCS(C)(=O)=O)CC1` [RG7112], for which, in the assay on AML, the clinical response result is reported as “clinical responses including complete remissions”.
